Source: patent publication US20190382346A1, “(NITRO-PHENYL)-NITROPYRIDINE COMPOUNDS FOR TREATING SYNUCLEINOPATHIES” (UNIVERSITAT AUTONOMA DE BARCELONA, priority 2017, published 2019)

Key:
[1] = biological target: T1, human wild-type α-synuclein (Homo sapiens, UniProt P37840); experiment: α-synuclein aggregation scattering assay; format: biochemical; conditions: 100 μM compound, 70 μM α-synuclein, 2 weeks, 37° C., 600 rpm
T1 construct: made in house; host or cells: E. coli BL21 (DE3)
Protocol: Previously lyophilized α-synuclein was carefully dissolved in PBS buffer to a final concentration of 210 μM and filtered through a Millipore s 0.22-μm filter. α-synuclein aggregation assay was performed in a 96 wells plate (non-treated, black plastic) containing in each well a Teflon polyball (3.175 mm in diameter), 40 μM thioflavin-T, 70 μM α-synuclein, 100 μM of the tested compound and PBS up to a final volume of 150 μL. Plates were fixed into an orbital culture shaker Max-Q 4000 Thermo Scientific to keep the incubation at 37° C., 100 rpm. Every 2 hours, the fluorescence intensity was measured using a Victor3.0 Multilabel Reader by exciting the mixtures with 430-450 filter and collecting the emission intensity with 480-510 filter (triplicates for each measurement). Each plate contained 3 α-synuclein controls in the absence of any compound. The averaged Th-T fluorescence obtained for these wells at the end of the experiment was normalized to 1 and the kinetic curves in the different wells re-scaled accordingly. Re-scaled curves were used to compare the controls with the effect of the tested compound and to ensure that the controls were reproducible between different experiments. […] After 2 weeks, scattering of the samples was analyzed at 300 nm and 340 nm using a Varian fluorimeter. […]

[2] = biological target: T2, human A30P mutant α-synuclein (Homo sapiens, UniProt P37840, A30P); experiment: thioflavin-T aggregation assay, A30P mutant; format: biochemical; conditions: 100 μM compound, 70 μM α-synuclein, 24 h
T2 construct: made in house; host or cells: E. coli BL21 (DE3)
Protocol: (§1) Previously lyophilized α-synuclein was carefully dissolved in PBS buffer to a final concentration of 210 μM and filtered through a Millipore s 0.22-μm filter. α-synuclein aggregation assay was performed in a 96 wells plate (non-treated, black plastic) containing in each well a Teflon polyball (3.175 mm in diameter), 40 μM thioflavin-T, 70 μM α-synuclein, 100 μM of the tested compound and PBS up to a final volume of 150 μL. Plates were fixed into an orbital culture shaker Max-Q 4000 Thermo Scientific to keep the incubation at 37° C., 100 rpm. Every 2 hours, the fluorescence intensity was measured using a Victor3.0 Multilabel Reader by exciting the mixtures with 430-450 filter and collecting the emission intensity with 480-510 filter (triplicates for each measurement). Each plate contained 3 α-synuclein controls in the absence of any compound. The averaged Th-T fluorescence obtained for these wells at the end of the experiment was normalized to 1 and the kinetic curves in the different wells re-scaled accordingly. Re-scaled curves were used to compare the controls with the effect of the tested compound and to ensure that the controls were reproducible between different experiments. […] After 2 weeks, scattering of the samples was analyzed at 300 nm and 340 nm using a Varian fluorimeter. […] Every 2 hours, the thioflavin-T fluorescence intensity was measured as described above.

α-synuclein fibrils = biological target: T3, α-synuclein fibrils (Homo sapiens, UniProt P37840); experiment: Transmission Electron Microscopy of α-synuclein fibrils at end of aggregation reaction; format: biochemical; conditions: end of the aggregation reaction
T3 construct: made in house; host or cells: E. coli BL21 (DE3)
Protocol: α-synuclein fibers from final point reaction (either in absence or presence of the final concentration inhibitors) were collected in Eppendorfs. After diluting the aggregated α-synuclein to a concentration of 10 μM α-synuclein, each sample was sonicated for 10 minutes. 5 μL of these samples were placed on carbon-coated copper grids and allowed to stand for 5 minutes. Then, samples were carefully dried with filter paper to remove the excess of sample. Grids were washed twice with MiliQ water by immersion and stained by incubating grids with 5 μL 2% (w/v) uranyl acetate for 2 minutes for the negative staining. After removal of the uranyl acetate excess with filter paper, grids were let to air-dry for 10 minutes. The samples were imaged using a Jeol 1400 Transmission Electron Microscopy operating at an accelerating voltage of 120 kV. 30 fields were screened at least, to obtain representative images.

[3] = system: human wild-type α-synuclein fused to yellow fluorescent protein (YFP); experiment: C. elegans α-synuclein aggregation model; format: in vivo; conditions: 10 μM compound, 5 days from L4 stage, strain NL5901
Protocol: α-synuclein aggregation was assessed using an C. elegans in vivo model described by (Van Ham et al., 2008) and (Muñoz-Lobato et al., 2014).
The nematode strain NL5901, unc-119(ed3) III; [pkls2386 (Punc-54::α-syn::yfp; unc-119(+))] was obtained from the Caenorhabditis elegans Genetic Center (CGC), University of Minnesota, USA. The strain expresses a fusion of human wildtype α-synuclein and yellow fluorescent protein (YFP) in body wall muscle cells. The nematodes were maintained using standard procedures, grown in NGM agar plates and fed with E coli (OP50 strain). Adult worms were bleached to get synchronized nematode cultures. NGM-agar plates with a) DMSO only (vehicle) and b) 10 μM final concentration of the tested compound were prepared. Afterwards, OP50 containing a) or b) was added to NGM plates and let dry for 24 h. […] After 5 days of development (L4+5) the numbers of α-synuclein aggregates were determined using a fluorescence microscope. […] The same section in each animal was analyzed and captured in stacks to include aggregates contained from the top to the bottom of each animal ([…], 25 stacks). Image analysis was performed using ImageJ software, from the Z MAX acquisition, quantifying the number of α-synuclein-YFP aggregates. Final quantification and statistics was performed by the Graph Pad Prism 6.0 software, comparing vehicle-treated worms with drug-treated animals. […]

[4] = biological target: T1, human wild-type α-synuclein; experiment: α-synuclein aggregation and thioflavin-T assay; format: biochemical
Protocol: Previously lyophilized α-synuclein was carefully dissolved in PBS buffer to a final concentration of 210 μM and filtered through a Millipore s 0.22-μm filter. α-synuclein aggregation assay was performed in a 96 wells plate (non-treated, black plastic) containing in each well a Teflon polyball (3.175 mm in diameter), 40 μM thioflavin-T, 70 μM α-synuclein, 100 μM of the tested compound and PBS up to a final volume of 150 μL. Plates were fixed into an orbital culture shaker Max-Q 4000 Thermo Scientific to keep the incubation at 37° C., 100 rpm. Every 2 hours, the fluorescence intensity was measured using a Victor3.0 Multilabel Reader by exciting the mixtures with 430-450 filter and collecting the emission intensity with 480-510 filter (triplicates for each measurement). Each plate contained 3 α-synuclein controls in the absence of any compound. The averaged Th-T fluorescence obtained for these wells at the end of the experiment was normalized to 1 and the kinetic curves in the different wells re-scaled accordingly. Re-scaled curves were used to compare the controls with the effect of the tested compound and to ensure that the controls were reproducible between different experiments. For the titration assay, different concentrations of tested compound (200, 150, 100, 75 and 25 μM) were used. For the scattering assay, 70 μM α-synuclein, 100 μM of the tested compound or DMSO (in control samples) and PBS up to a final volume of 1 mL were incubated in low-binding plastic tubes (Protein LoBind Tube 1.5 mL, Eppendorf) using a thermomixer (Thermomixer comfort, Eppendorf) at 37° C. and 600 rpm. After 2 weeks, scattering of the samples was analyzed at 300 nm and 340 nm using a Varian fluorimeter.
Each sample was tested in triplicate. Each plate contained an also triplicated control without tested compound.
In the aggregation assay described above, α-synuclein aggregates within approximately 24 h with a sigmoidal aggregation curve.

[5] = biological target: T4, human H50Q mutant α-synuclein (Homo sapiens, UniProt P37840, H50Q); experiment: thioflavin-T aggregation assay, H50Q mutant; format: biochemical; conditions: 100 μM compound, 70 μM α-synuclein, 24 h
T4 construct: made in house; host or cells: E. coli BL21 (DE3)
Protocol: as §1

in vitro = format: cell-based; conditions: human
Protocol: Cultured cells of human neuroblastoma cell line SH-SY5Y were incubated for 72 h with either the vehicle (DMSO) or with different concentrations of the compound. Then, the cells were incubated with a cell viability indicator (PrestoBlue® Cell Viability Reagent). The modification of PrestoBlue® Cell Viability Reagent by the reducing environment of viable cells turns the dye red in color becoming highly fluorescent. This color change can be detected measuring fluorescence by exciting at 531 nm and detecting emission at 615 nm. The CC50 of compound D (concentration that caused death in 50% of the cells, i.e. reduction to 50% viability) was >700 μM (FIG. 6).

[6] = 70 μM α-synuclein, 100 μM compound, 37° C.

N#Cc1c(O)nc(-c2cccc([N+](=O)[O-])c2)c([N+](=O)[O-])c1C(F)(F)F [compound D, 2-hydroxy-5-nitro-6-(3-nitrophenyl)-4-(trifluoromethyl)nicotinonitrile]
inhibition of human wild-type α-synuclein aggregation (scattering at 300 nm and 340 nm) [1]: inhibits
inhibition of human A30P mutant α-synuclein aggregation (thioflavin-T fluorescence) [2]: inhibits
number and size of α-synuclein fibrils compared to control (TEM) (α-synuclein fibrils): significant decrease in both number and size of α-synuclein fibrils
α-synuclein-YFP protein inclusions in muscle cells of the worms [3]: significantly decreased
delay of halftime of aggregation relative to the control [4, 6]: 3 h
inhibition of α-synuclein aggregation at the end of the aggregation reaction relative to the control (thioflavin-T fluorescence) [4, 6]: 32.4%
anti-aggregation activity in titration assays ([4]; 200, 150, 100, 75 and 25 μM compound, 70 μM α-synuclein): clear dose-dependent anti-aggregation activity
k1 (nucleation rate constant), Finke-Watzky two-step model ([4]; fitted aggregation curves): decreased
k2 (growth rate constant), Finke-Watzky two-step model ([4]; fitted aggregation curves): decreased
activity at sub-stoichiometric protein:compound ratios ([4]; titration assay, 70 μM α-synuclein): showed activity
inhibition of human H50Q mutant α-synuclein aggregation (thioflavin-T fluorescence) [5]: inhibits
CC50 at 72 h (in vitro): > 700 µM
